Results on 80 compounds are retold here after the METLIN SMRT retention time set (Domingo-Almenara et al. 2019).

The data set can be described thus: gradient 5% acetonitrile 3 min, to 50% in 2 min, to 85% in 15 min, held 3 min, 100 µL/min. As to conditions: column: Zorbax Extend-C18 2.1 x 50 mm; eluents: water / acetonitrile, 0.1% formic acid. Summed up:
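The mobile phases were water and acetonitrile, each with 0.1% formic acid, pumped at 100 μL/min through a Zorbax Extend-C18 column (2.1 × 50 mm, 1.8 μm). Pure standards were injected as mixtures of ~100 molecules and detected by a quadrupole time-of-flight mass spectrometer in positive and negative ionization mode. Retention time came from computationally picked adduct peaks, each inspected by hand.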
`O=S(=O)(NCc1nc(-c2ccc(-c3csc(C4CC4)n3)cc2)no1)c1ccccc1` came in with an RP-LC retention time of 1100 s.
With `CCn1ccc2c(cc(C(=O)Nc3ccc(Br)c(C)c3)n2C)c1=O` the figure was 895 s; with `CCOCCCNCc1ccc(-c2ccc(OC)c(Cl)c2)o1`, 705 s; with `CCc1cccc(NC(=O)Cn2c(N3CCCC3)nc(C)cc2=O)c1`, 682 s.
Then `COc1ccc(NC(=O)Cn2nc3cc(-c4ccccc4)nc(C)n3c2=O)cc1F`, with 914 s.
Then `Cc1ccccc1-c1nc(C)c(C(=O)NC2CC2)s1`, with 863 s.
Consider `Cc1ccc2ncc(C(=O)NCCCOC(C)C)c(=O)n2c1`, for which the RP-LC retention time turned out to be 656 s.
Then `Cc1ccccc1-c1nnc(CSc2nnc(NC(=O)Cc3ccccc3Cl)s2)o1`, with 977 s; and `O=C(CSc1nccn1Cc1ccco1)Nc1ccccc1C(F)(F)F`, with 637 s.
Then `COc1ccc(NC(=O)C2CCN(c3nnc4ccccn34)CC2)cc1Cl`, with 666 s.
`CCOC(=O)C1CCN(C(=O)C2CCCN(c3nc4ccccc4[nH]3)C2)CC1` (stereo not given): the RP-LC retention time came to 646 s.
In turn, `CN(C)c1cccc(C(=O)N2CCC3(CC2)N=C(c2ccccc2)NO3)c1` gave an RP-LC retention time of 717 s.
Then `COc1ccc(NC(=O)c2cc(C(C)C)n(C3CCS(=O)(=O)C3)n2)cc1` (stereo not given), with 831 s.
The compound `COc1ccc(-c2cc3nn(CC(=O)Nc4ccccc4F)c(=O)n3c(C)n2)cc1` returned an RP-LC retention time of 901 s.
With `CCC(=O)Nc1cc2c(cc1Sc1ccc(OC)cc1)n(C)c(=O)n2C` the figure was 974 s; with `CCCSc1ncnc2[nH]ncc12`, 837 s.
Then `CCOc1ccc(-c2ccc(=O)n(Cc3nc(-c4ccc(CC)cc4)no3)n2)cc1`, with 1230 s.
Compound `COc1ccc(-c2nnc(Cc3nc(-c4cccc(Cl)c4)no3)o2)cc1` showed an RP-LC retention time of 1020 s.
Then `CC1CN(c2nc(Nc3ccc(Cl)cc3)c3cnn(C)c3n2)CC(C)O1` (stereo not given), with 1040 s; and `CCN1CCN(CCCNC(=O)C2CCCN(c3nnc(-n4cccc4)s3)C2)CC1` (stereo not given), with 572 s; and `CCCCS(=O)(=O)N1CCC(c2cc(N)on2)CC1`, with 706 s.
Take `CCc1ccc(C(=O)N2CCCn3nc(-c4cccs4)cc3C2)cc1`: the RP-LC retention time is 913 s.
Then `Cc1cc(C)c(C)c(S(=O)(=O)N2CCN(c3nc4ccncc4n(C)c3=O)CC2)c1C`, with 755 s; and `CCS(=O)(=O)c1nc2ccc(NS(=O)(=O)c3ccc4c(c3)OCCO4)cc2s1`, with 826 s.
With `COc1cccc(-n2c(=O)c3sccc3n(Cc3nc(-c4ccccc4C)no3)c2=O)c1` the figure was 1000 s; with `Cc1cc(C)cc(-n2ccn3c(CCC(=O)NCCc4c[nH]c5ccccc45)nnc3c2=O)c1`, 744 s; with `Cc1ccccc1CN1CC(=O)NCC12CCCC2`, 573 s.
Then `Cc1nc2cc(-c3noc(C4CC(=O)N(c5cccc(Cl)c5)C4)n3)ccc2o1` (stereo not given), with 958 s; and `COc1ccc(C)cc1NC(=O)C1CCN(S(=O)(=O)c2ccc3c(c2)sc(=O)n3C)CC1`, with 827 s; and `CCn1cnc(S(=O)(=O)N2CCCC(C(=O)Nc3cc(C)cc(C)c3)C2)c1` (stereo not given), with 803 s.
Compound `COC(=O)c1ccc(NC(=O)CC(C)S(=O)(=O)c2ccc3c(c2)NC(=O)CCS3)cc1` (stereo not given) had an RP-LC retention time of 740 s.
With `COc1cccc(C2Cn3nnc(-c4nc(-c5ccccc5C)no4)c3CO2)c1` (stereo not given), the RP-LC retention time was determined as 1180 s.
With `COc1ccc(-c2csc(CN3CCN(C(=O)C4CC4)CC3)n2)cc1` the figure was 599 s; with `O=C(Nc1ccc(SCC(=O)N2CCN(c3ccccc3)CC2)nn1)c1ccccc1`, 796 s; with `COc1ccc(OC)c(NC(=O)c2cc(S(=O)(=O)N3CCC(C)CC3)cn2C)c1`, 1060 s.
With `COCC(=O)Nc1nnc(SCc2nnc(-c3ccc4c(c3)OCO4)o2)s1` the figure was 717 s; with `Cc1ccc(N2CCC(NC(=O)Nc3ccc(F)cc3F)C2=O)cc1C` (stereo not given), 903 s.
For `O=S(=O)(c1ccc2c(c1)OCCO2)N1CCCn2nc(-c3cccc(Cl)c3)cc2C1`, the RP-LC retention time amounted to 1040 s.
Then `COC(=O)c1c(NCCc2c[nH]c3ccccc23)c2cc(F)ccc2[nH]c1=O`, with 770 s; and `COCc1cc(=O)n(CC(=O)Nc2cccc(Cl)c2)c(N)n1`, with 635 s; and `O=C(CNC(=O)Cc1ccccc1)NCc1[nH]nc2ccccc12`, with 648 s.
With `Cc1cc(C(=O)NCc2ccc3c(c2)OCO3)c2ccccc2n1` the figure was 637 s.
With `Cc1ccc(Cn2c(=O)c(N3CCN(C(=O)NCC4CCCO4)CC3)nc3ccccc32)cc1` (stereo not given) the figure was 908 s.
`CCC1Oc2ccc(S(=O)(=O)N3CCC(C(=O)N4CCCCCC4)CC3)cc2NC1=O` (stereo not given) had an RP-LC retention time of 842 s.
For `CCc1noc(NC(C)=O)c1-c1ccc(C)c(S(=O)(=O)NCc2ccc(OC)cc2)c1`, the RP-LC retention time came to 807 s.
In turn, `CCCn1ccc2sc(C)c(C(=O)N3CCCCC3)c2c1=O` displayed an RP-LC retention time of 760 s.
With `COC(=O)c1cnc2nc(C)ccc2c1Nc1ccc(Cl)cc1C` the figure was 721 s; with `Cc1[nH]c(C(=O)N2CCC(CC(=O)NC(C)c3ccccc3)CC2)c(C)c1C(=O)OC(C)C` (stereo not given), 832 s; with `Cc1ccc(Cl)cc1N(C)C(=O)C1CCCN(c2ncnc3c2nc2n3CCCCC2)C1` (stereo not given), 918 s.
In turn, `Cc1cc(S(=O)(=O)N(C)CC2CCOC2)ccc1F` (stereo not given) yielded an RP-LC retention time of 836 s.
For the compound `CCOC(=O)c1c(S(=O)(=O)N2CCC(C(=O)Nc3ccc(F)cc3F)CC2)c(C)n(CC)c1C`, the RP-LC retention time was 895 s.
Then `COc1ccc(-c2noc(-c3nc(-c4ccc(N(C)C)cc4)no3)n2)cc1OC`, with 1230 s; and `COc1ccc(C(=O)Nc2nnc(C3CC(=O)N(c4ccc(Cl)cc4)C3)o2)cc1` (stereo not given), with 773 s; and `CN(CC(=O)N1CCN(c2ccccc2F)CC1)S(=O)(=O)c1ccc2c(c1)CCCC(=O)N2`, with 768 s.
With `CC(=O)c1sc(NC(=O)c2ccccc2[N+](=O)[O-])nc1C` the figure was 679 s; with `CC1CCN(CC2CCN(S(=O)(=O)c3cccc(Cl)c3)CC2)CC1`, 691 s; with `CCC1CCCCN1CCCNC(=O)C1CCN(c2ccc(N3CCCCC3)nn2)CC1` (stereo not given), 561 s.
In the case of `CC(=O)N(C1CC1)C1CCOC2(CCN(C(=O)c3ccsc3)CC2)C1` (stereo not given), the RP-LC retention time worked out at 673 s.
`COc1cccc2cc(C(=O)NCc3ccc(S(N)(=O)=O)cc3)oc12` registered an RP-LC retention time of 669 s.
Turning to `O=S(=O)(Nc1ccc(F)c(F)c1)c1c[nH]c2ncccc12`, the RP-LC retention time was found to be 739 s.
Then `O=C(NCC(F)(F)F)C1CN(C(=O)c2ccc(F)c(F)c2)C1`, with 667 s; and `O=C(NCCc1csc(C2CCCN(C(=O)C3CCCO3)C2)n1)C1CC1` (stereo not given), with 627 s.
`CCn1cc(CC(=O)NCc2ccc(F)cc2)c2cccnc21`: the RP-LC retention time was 708 s.
With `Cc1ccc(C)c(N2CCN(c3ccnc(SCC(=O)Nc4cc(F)ccc4F)n3)CC2)c1` the figure was 1120 s; with `CC(=O)Nc1ccc(OCC(=O)NC2CCN(Cc3ccccc3)CC2)nc1`, 572 s; with `CCN(CC)CCCNc1ccc(-c2nc(-c3cccc(F)c3)no2)cn1`, 707 s.
For `COc1cccc(NC(=O)Nc2cc(-c3cn4cccnc4n3)ccc2OC)c1`, the RP-LC retention time came to 654 s.
Then `O=C(CN1C(=O)CCCc2cc(S(=O)(=O)N3CCCCCC3)ccc21)Nc1ccccc1F`, with 953 s; and `CC(C)c1nc(-n2cccc2)sc1C(=O)NC1CC1`, with 985 s; and `CCCN(CC1CCOC1)C(=O)c1cc(C)cc(C)c1` (stereo not given), with 868 s.
Regarding `COc1ccc2[nH]cc(CCNC(=O)c3ccc(F)cc3)c2c1`, the RP-LC retention time turned out to be 778 s.
With `COCCC(=O)N1CCN(c2ncccc2-c2nnc(C(C)C)o2)CC1` the figure was 666 s; with `COc1ccc(-c2ccc3nc(N4CCC(C(=O)NC(C)C)CC4)sc3n2)cc1`, 926 s; with `CC(=O)N1c2ccc(S(=O)(=O)N3CCCCCC3)cc2CC1C(=O)NCc1ccccc1Cl` (stereo not given), 950 s.
With `COC(=O)c1c(NC(C)C)c2cccc(Cl)c2[nH]c1=O` the figure was 725 s; with `Cc1cccc(Sc2nccnc2N2CCCC(C(=O)N3CCN(c4ccccn4)CC3)C2)c1` (stereo not given), 761 s.
Then `Cc1ccc(NS(=O)(=O)c2ccc([N+](=O)[O-])cc2)c(-c2nc3ccccc3[nH]c2=O)c1`, with 858 s; and `N#Cc1nc(-c2ccc(COc3ccc(Cl)cc3)o2)oc1N1CCC(C(N)=O)CC1`, with 806 s; and `Cn1c(=O)sc2cc(S(=O)(=O)N3CCC(C(=O)Nc4cccc(C(F)(F)F)c4)CC3)ccc21`, with 970 s.
`Cn1cc(S(=O)(=O)N2CCCCC2)cc1C(=O)NC1CCCCC1` came in with an RP-LC retention time of 953 s.
